The values below come from patent publication US10513503B2, “Use of 3-deoxyanthocyanidins for treating occular diseases” (BIOPHYTIS, priority 2015, dated 2019).

Assay [1] deals with primary cultures of retinal pigment epithelium (RPE) of adult pigs. Kind of assay: In vitro assay of the photoprotective activity: phototoxicity induced by A2E and blue light, cell survival. It is filed as cell-based, pig. Conditions: for viability at 20 µM / viability at 5 µM: Sus scrofa; for viability at 20 µM / Cell survival / viability at 5 µM: A2E 30 μM, blue light 470 nm 50 min, survival after 24 h, living cells vs control wells without A2E x100, A2E controls without molecule 39.7±3.7. How it is done: A cell model of phototoxicity induced by the association of a treatment by the A2E and of an illumination by blue light on primary cultures of RPE, wherein cell survival was measured, was used. This model uses primary cultures of retinal pigment epithelium of adult pigs.
This model makes it possible in particular to carry out the screening of molecules aimed at the discovery of new candidates for a treatment of the dry form of AMD. This model is closer to the “physiological” situation than the cell lines commonly used in literature, because the cells used contain protective substances provided by the diet of the animal and are therefore not in a situation of “deficiency”, and their disturbance is caused by the adding of A2E into the culture medium.
The cell cultivated in 96-well plates were treated for 48 hours with the compounds to be tested (in a 5 mM solution in the DMSO) in such a way as to obtain final concentrations of 5 or 20 μM), of which the last 19 hours in the presence of A2E (final concentration 30 μM). […] Cell survival is measured after 24 hours.
Cell survival and death are detected 24 hours after the induction of the phototoxicity by colouration of the cells with Hoechst (a nuclear marker) and with ethidium (a marker of the nuclei of dead cells). Images of each well are acquired on a fluorescent microscope equipped with a motorised stage controlled by the Metamorph software, and cell survival is quantified by a dedicated quantification program. The experiments are conducted on 96-well microplates in quadruplicate and each experiment is reproduced at least four times.
The results are expressed in the form of a ratio representing the number of living cells in the wells treated by the molecules to be tested divided by the number of living cells in the control wells (treated with the dilution medium without A2E) and multiplied by 100.

The subject of assay [2] is RPE cells. Particulars: literature, in words; cited from earlier work.
Assay [3] concerns RPE cells. Particulars: literature, in words; cited from earlier work. This is another data set of the same source.
Assay [4] relates to genetically modified mouse model (ABCA4 and Rdh8 inactivated). Kind of assay: In vivo assay of the photoprotective activity in mice (blue light exposure after intravitreal injection). Particulars: unilateral intravitreal injection, 100-130 μM in the vitreous, blue light 4000 lux 1 h. From the text:
A genetically modified mouse model developed by Maeda et al. (Invest Ophthalmol. Vis. Sci., 2009, 50, 4917-4925) was used to test the photoprotective activity of the compounds of the invention.
In this mouse model, two genes involved in the visual pigment cycle (ABCA4 and Rdh8, see FIG. 1) are inactivated, which results in an early accumulation of A2E in the eyes. This animal model is therefore representative of the human pathology.
Mice aged 7 weeks were used to carry out the unilateral intravitreal injections of solubilised diosmetinidin ([…]) in DMSO and diluted in PBS (1.2:100), in order to obtain a concentration in the vitreous of 100-130 μM. DMSO diluted in the PBS was injected into the control animals. After 24 h in the dark, the mice were subjected to an exposure to blue light (4000 lux, 1 h).

With `COc1ccc(-c2ccc3ccc(O)cc3[o+]2)cc1O` [Compound 3, 3′,7-dihydroxy-4′-methoxy-flavylium chloride], the viability (usually a read-out of living cells in per cent, often relative to untreated cells) at 20 µM in assay [1] (20 μM compound for 48 h) was 77 ± 2.7%.

As for `Oc1cc(O)c2cc(O)c(-c3ccc(O)c(O)c3)[o+]c2c1` [Cyanidin, cyanidin], the results for the Cell survival in assay [1] (5 μM compound for 48 h) and in assay [1] (20 μM compound for 48 h) were 56.4 ± 8.8% and 92.9 ± 1.9%, respectively. In addition, the photoprotector effect result in assay [1] (at 20 μM, in words) is on record as “substantial photoprotector effect”. In assay [1] (at a lower concentration (5 μM), in words), the “effectiveness of the photoprotection” value is “substantially reduced”. In addition, the “photoprotective effect on the RPE cells” value in assay [2] is given as “photoprotective effect”. Also, in assay [3], the “effectiveness for cell survival of the RPE cells” value (“effectiveness for cell survival” below) is listed as “ineffectiveness”.

With `Oc1cc(O)c2ccc(-c3ccc(O)c(O)c3)[o+]c2c1` [Compound 7, 3′,4′,5,7-tetrahydroxy-flavylium chloride (luteolinidin)], the viability at 5 µM in assay [1] (5 μM compound for 48 h) is 72 ± 4.4%. In assay [1] (20 μM compound for 48 h), this molecule displayed a viability at 20 µM of 93.6 ± 6.7%.

As to `COc1ccc(-c2ccc3ccc(O)cc3[o+]2)c(O)c1` [Compound 1, 2′,7-dihydroxy-4′-methoxy-flavylium chloride], in assay [1] (20 μM compound for 48 h), the viability at 20 µM turned out to be 89.9 ± 4.9%.

The molecule `COc1cc(-c2[o+]c3cc(O)cc(O)c3cc2O)cc(O)c1O` [Petunidin, petunidin] registered a Cell survival in assay [1] (20 μM compound for 48 h) of 67.2 ± 6.9%. Also, in assay [3], the “effectiveness for cell survival” value is reported as “ineffectiveness”.

Consider `COc1ccc(-c2ccc3ccc(O)cc3[o+]2)cc1OC`, for which the viability at 20 µM in assay [1] (20 μM compound for 48 h) was 46.1 ± 4.7%.

In assay [1] (5 μM compound for 48 h), `Oc1cc(O)c2ccc(-c3cc(O)c(O)c(O)c3)[o+]c2c1` [Compound 6, 3′,4′,5′,5,7-pentadroxy-flavylium chloride (tricetinidin)] returned a viability at 5 µM of 74.9 ± 4.2%. Moreover, the viability at 20 µM in assay [1] (20 μM compound for 48 h) came to 99.3 ± 3.3%.

For guibourtinidin, in assay [1] (20 μM compound for 48 h), the Cell survival is recorded as 42.8 ± 6.9%.

In turn, `Oc1ccc2cc(O)c(-c3ccc(O)c(O)c3)[o+]c2c1` [Fisetinidin, fisetinidin] returned a Cell survival in assay [1] (20 μM compound for 48 h) of 39.3 ± 3.2%.

Regarding `Oc1cc(O)c2cc(O)c(-c3cc(O)c(O)c(O)c3)[o+]c2c1` [Delphinidin, delphinidin], the Cell survival is 40.5 ± 6.2% in assay [1] (5 μM compound for 48 h) and 57.8 ± 5.6% in assay [1] (20 μM compound for 48 h). Moreover, the “photoprotective effect on the RPE cells” value in assay [2] was “photoprotective effect”. Moreover, the “effectiveness for cell survival” value in assay [3] is “ineffectiveness”.

For `Oc1ccc(-c2[o+]c3cc(O)c(O)c(O)c3cc2O)cc1O` [Quercetagetinidin, quercetagetinidin], the Cell survival in assay [1] (20 μM compound for 48 h) is given as 54.3 ± 6.6%.

With `COc1ccc(-c2ccc3c(O)cc(O)cc3[o+]2)cc1O.[Cl-]` [Compound 5, 3′,5,7-trihydroxy-4′-methoxy-flavylium chloride (diosmetinidin)], the viability at 5 µM in assay [1] (5 μM compound for 48 h) is 84.5 ± 1.4%. Further, in assay [1] (20 μM compound for 48 h), the viability at 20 µM was found to be 90.8 ± 3.6%. Further, in assay [4] (7 days later), the “electroretinograms (wave A, wave B electrical activity)” value is “protective effect”. For the same molecule, in assay [4] (FIG. 4), the “survival of the photoreceptors (number of layers of photoreceptors)” value was “good survival”.

As for `Oc1ccc(-c2ccc3c(O)cc(O)c(O)c3[o+]2)cc1O` [Gossypetinidin, gossypetinidin], in assay [1] (20 μM compound for 48 h), the Cell survival was determined as 36.5 ± 14.4%.

Molecule `COc1ccc(-c2ccc3ccc(OC)cc3[o+]2)c(O)c1` came in with a viability at 20 µM in assay [1] (20 μM compound for 48 h) of 39.2 ± 7.4%.

Molecule `Oc1ccc(-c2ccc3c(O)cc(O)cc3[o+]2)cc1` [Compound 4, 4′,5,7-trihydroxy-flavylium chloride (apigeninidin)] came in with a viability at 5 µM in assay [1] (5 μM compound for 48 h) of 71 ± 3.6%. Besides, the viability at 20 µM in assay [1] (20 μM compound for 48 h) is 89.5 ± 3.5%.

For `COc1cc(-c2[o+]c3cc(O)cc(O)c3cc2O)cc(OC)c1O.[Cl-]` [Malvidin, malvidin], the Cell survival in assay [1] (20 μM compound for 48 h) came to 51.5 ± 6.9%. The “photoprotective effect on the RPE cells” value in assay [2] is “contrary”. Also, in assay [3], the “effectiveness for cell survival” value was “ineffectiveness”.

As for `COc1ccc2ccc(-c3ccc(OC)c(OC)c3)[o+]c2c1`, the viability at 20 µM in assay [1] (20 μM compound for 48 h) turned out to be 48.7 ± 5.5%.

`COc1ccc(-c2ccc3ccc(O)cc3[o+]2)c(O)c1O` [Compound 2, 2′,3′,7-trihydroxy-4′-methoxy-flavylium chloride] returned a viability at 20 µM in assay [1] (20 μM compound for 48 h) of 86.7 ± 2.3%.
